{"source": "paper PMC5323330", "about": "(SLAS discovery, 2016)", "key": {"SERCA": {"test_system": "SERCA", "settings": "cited from earlier work"}, "[1]": {"test_system": "endoplasmic reticulum [Ca2+] in HEK293 cells expressing D1ER", "experiment": "D1ER calcium FRET sensor, ER calcium content in live cells", "assay_type": "cell-based, human", "settings": "120 min time point"}, "cytosolic calcium": {"test_system": "cytosolic calcium", "settings": "cited from earlier work"}}, "data": [{"smiles": "Clc1ccccc1C(c1ccccc1)(c1ccccc1)n1ccnc1", "note": "[Clotrimazole, clotrimazole]", "values": [{"measurement": "SERCA function, earlier report", "setting": "SERCA", "value": "inhibit SERCA function"}]}, {"smiles": "Clc1ccc(COC(Cn2ccnc2)c2ccc(Cl)cc2Cl)c(Cl)c1", "note": "(stereo not drawn) [Miconazole]", "values": [{"measurement": "ER calcium depletion (decreased D1ER FRET)", "setting": "[1]", "value": "largest amount of ER calcium depletion"}]}, {"smiles": "Oc1cc(Cl)ccc1Oc1ccc(Cl)cc1Cl", "note": "[triclosan]", "values": [{"measurement": "cytosolic calcium, earlier report", "setting": "cytosolic calcium", "value": "increase cytosolic calcium"}]}]}
